Series [1] is described as follows: Antioxidant activity assessed as DPPH free radical scavenging activity at 10 uM after 30 mins incubation in dark by UV-Visible spectrophotometric analysis relative to control. The class given is functional. On the technique in general: DPPH is a stable violet radical that fades when it is reduced.
Series [2] can be described thus: Antioxidant activity assessed as DPPH free radical scavenging activity after 30 mins incubation in dark by UV-Visible spectrophotometric analysis. The class given is functional.
In series [3] the target is Acetylcholinesterase (Electrophorus electricus) (UniProt O42275). The experiment in a line: Inhibition of electric eel AChE at 50 nM using acetylthiocholine iodide as substrate preincubated for 60 mins followed by substrate addition measured for 5 mins by Ellman's method. (In general: Ellman's reagent forms a yellow product with free thiols.)
Sequence of Acetylcholinesterase (Electrophorus electricus) (O42275 24-633 limits assumed): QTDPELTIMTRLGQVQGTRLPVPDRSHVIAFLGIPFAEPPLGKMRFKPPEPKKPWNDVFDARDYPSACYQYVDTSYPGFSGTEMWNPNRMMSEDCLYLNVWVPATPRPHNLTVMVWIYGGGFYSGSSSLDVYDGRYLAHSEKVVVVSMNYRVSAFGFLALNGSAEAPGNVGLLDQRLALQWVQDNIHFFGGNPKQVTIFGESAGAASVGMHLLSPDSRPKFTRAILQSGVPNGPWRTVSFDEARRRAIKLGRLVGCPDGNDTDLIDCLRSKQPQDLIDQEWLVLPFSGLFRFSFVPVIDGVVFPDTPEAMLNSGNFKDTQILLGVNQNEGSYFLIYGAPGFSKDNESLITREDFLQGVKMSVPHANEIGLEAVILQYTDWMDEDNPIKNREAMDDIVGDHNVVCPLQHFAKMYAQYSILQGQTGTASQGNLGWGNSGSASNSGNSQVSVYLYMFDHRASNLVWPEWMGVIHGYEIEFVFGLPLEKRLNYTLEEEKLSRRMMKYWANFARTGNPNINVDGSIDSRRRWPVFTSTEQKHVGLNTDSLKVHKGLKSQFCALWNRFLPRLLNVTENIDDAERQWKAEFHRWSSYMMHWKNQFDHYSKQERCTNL
The target in series [4] is Cholinesterase (Equus caballus) (UniProt P81908). Description: Inhibition of equine serum BChE at 50 nM using acetylthiocholine iodide as substrate preincubated for 60 mins followed by substrate addition measured for 5 mins by Ellman's method.
Sequence of Cholinesterase (Equus caballus) (P81908 whole entry): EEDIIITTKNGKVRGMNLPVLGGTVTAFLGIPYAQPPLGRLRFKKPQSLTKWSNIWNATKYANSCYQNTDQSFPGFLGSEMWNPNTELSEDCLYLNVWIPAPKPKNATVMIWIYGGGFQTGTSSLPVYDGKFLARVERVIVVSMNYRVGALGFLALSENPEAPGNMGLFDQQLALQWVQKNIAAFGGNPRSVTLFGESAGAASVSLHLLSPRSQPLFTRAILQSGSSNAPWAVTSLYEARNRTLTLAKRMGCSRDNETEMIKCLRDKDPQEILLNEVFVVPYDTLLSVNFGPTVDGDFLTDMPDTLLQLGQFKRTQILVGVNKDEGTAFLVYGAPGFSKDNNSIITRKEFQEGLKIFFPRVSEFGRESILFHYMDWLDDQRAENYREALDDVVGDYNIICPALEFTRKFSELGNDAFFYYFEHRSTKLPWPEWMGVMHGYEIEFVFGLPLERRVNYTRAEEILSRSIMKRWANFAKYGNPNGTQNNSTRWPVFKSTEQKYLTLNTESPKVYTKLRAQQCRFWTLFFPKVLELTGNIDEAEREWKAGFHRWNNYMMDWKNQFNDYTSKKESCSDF
Series [5] can be described thus: Cytotoxicity against mouse HT22 cells assessed as cell viability at 30 uM after 24 hrs by MTT assay relative to control. As to conditions: read-out: Activity. The class given is cell-based, HT-22. On the technique in general: Tetrazolium assays rely on reduction of a dye to a coloured formazan, in cell work by metabolically active cells.
Series [6] in a line: Cytotoxicity against mouse HT22 cells assessed as cell viability at 100 uM after 24 hrs by MTT assay relative to control. The class given is cell-based, HT-22. To be noted: read-out: Activity.
Series [7] in a line: Metal chelating activity assessed as compound-Cu2+ complex formation by measuring shift in maximum absorption at 10 uM after 30 mins by UV-vis spectrophotometric analysis.
Series [8] in a line: Metal chelating activity assessed as compound-Cu2+ complex formation at 1:1 ratio of test compound to CuCl2 incubated for 30 mins by UV-vis spectrophotometric analysis.
Series [9] in a line: Metal chelating activity assessed as compound-Cu2+ complex formation at 1:2 ratio of test compound to CuCl2 incubated for 30 mins by UV-vis spectrophotometric analysis.
Series [10] concerns HT-22. The experiment in a line: Neuroprotective activity against glutamate-induced neuronal damage in mouse HT22 cells at 3 to 30 uM pretreated for 30 mins followed by glutamate challenge measured after 24 hrs by MTT assay. The class given is functional, cell-based.

pIC50: −log10 of the molar value. The source made the active and inactive calls. No cut-off for these calls is given here.

On to `Cc1c(C)c2c(c(C)c1O)CCC(C)(C(=O)O)O2` (configuration not stated) [TROLOX], for which the Activity in [1] came out at 24.3%. The pIC50 in series [2] is 4.63.
Regarding `CCN(C)C(=O)Oc1cccc(CNC(=O)c2cccnc2O)c1`, the values for the inhibition in series [3] and in series [4] were 7.59% and 46.5%, respectively. Further, the Activity in series [1] was found to be 2.21%. Also, the viability at 24 h, 30 µM in [5] amounted to 101%. For the same compound, the viability at 24 h, 100 µM in series [6] amounted to 82.5%.
The corresponding values for `CCN(C)C(=O)Oc1cccc(NCc2ccccc2O)c1` are 8.13%, 38.5%, 13.8%, 103% and 80.3%.
The corresponding values for `CCN(C)C(=O)Oc1cccc(NC(=O)c2cccnc2O)c1` are 1.87%, 73.6%, 4.18%, 102% and 98.6%.
In the case of `CCN(C)C(=O)Oc1cccc(CCNC(=O)c2cccnc2O)c1`, the inhibition was 5.43% in series [3] and 53.7% in series [4]. Also, in series [1], the Activity is 2.21%. The viability at 24 h, 30 µM in series [5] stood at 106%. In [6], the viability at 24 h, 100 µM amounted to 99.4%.
As to `CCC(CC)CNc1ccc(O)c(CNCCc2cccc(OC(=O)N(C)CC)c2)c1`, the inhibition in series [3] amounted to 3.36%; in series [4], 14.2%. The pIC50 in series [2] was 4.54.
Turning to `CCN(C)C(=O)Nc1cccc(NC(=O)c2cccnc2O)c1`, the Activity in series [1] amounted to 3.62%. Besides, the viability at 24 h, 30 µM in series [5] turned out to be 97.2%. In series [6], the viability at 24 h, 100 µM came to 96.1%.
In the case of `CCN(C)C(=O)Oc1cccc(CCNCc2ccccc2O)c1`, the inhibition in series [3] was determined as 3.58%; in series [4] it was 34.5%. Besides, the Activity in series [1] was found to be 15.5%.
In the case of `CCN(C)C(=O)Oc1cccc([C@H](C)N(C)C)c1`, the inhibition in series [3] stood at 2.59%; in series [4], 54.7%.
Regarding `CCN(C)C(=O)Oc1cccc(NCc2ccccn2)c1`, the inhibition in series [3] was determined as 8.51%; in series [4], 58.9%. Further, the Activity in [1] stood at 7.4%. In addition, the viability at 24 h, 30 µM in series [5] stood at 91.3%. In addition, in series [6], the viability at 24 h, 100 µM was determined as 80.5%.
The corresponding values for `CCN(C)C(=O)Oc1cccc(CNCc2ccccc2O)c1` are 4.06%, 30.5%, 17.7%, 96.6% and 90.3%.
For `CCC(CC)CNc1ccc(O)c(CNc2cccc(OC(=O)N(C)CC)c2)c1`, the inhibition is 9.01% in series [3] and 64.2% in series [4]. Further, the pIC50 in series [2] is 4.58. Also, the Activity in [7] turned out to be 50 nm. Further, the outcome in series [8], in series [9] and in series [10] was Active. For the same compound, in [5], the viability at 24 h, 30 µM was 85.8%. Moreover, in series [6], the viability at 24 h, 100 µM was 25.2%.

The term pIC50 denotes −log10 of the IC50, conventionally taken in molar units. In general, inhibition refers to the percentage by which the read-out fell short of the control.

The values are drawn from ChEMBL document CHEMBL4393687, “Multi-targeted ChEI-copper chelating molecules as neuroprotective agents” (Eur J Med Chem, 2019).
